The source of these data is patent US20200046620A1, “Solid Compositions for Teeth Whitening and Anti-Microbial Effects” (Colgate-Palmolive Company, priority 2018, published 2020).

This test in a line: pH-dependent bleaching of Lissamine green B dye by NaDCC. The format is physicochemical. The settings on record: 10 mg NaDCC in 20 mL. As to the method:
Two different solutions, Solution A and Solution B, were prepared. Solution A contained 2% SAPP, 0.1% Lissamine green B dye, and 97.9% water. Solution B contained 2% tetrasodium pyrophosphate (TSPP), 0.1% Lissamine green B dye, and 97.9% water. Next, solutions with various pHs were obtained by mixing the two different solutions A and B, in different volume ratios (i.e., 1:0, 1:5, 1:1, 5:1, and 0:1). 20 mL of the resulting solutions were added to 10 mg NaDCC, and the time required to bleach away all of the Lissamine green B color was recorded.

For `O=c1nc([O-])n(Cl)c(=O)n1Cl.[Na+]` [NaDCC, sodium dichloroisocyanurate], the Time to bleach result runs as follows: (Mix Solution 1, VA:VB 1:0, pH 4.6) “Instantaneous”; (Mix Solution 2, VA:VB 1:5, pH 5.8) 0.25 min; (Mix Solution 3, VA:VB 1:1, pH 7.4) 8 min; (Mix Solution 4, VA:VB 5:1, pH 8.8) 35 min; (Mix Solution 5, VA:VB 0:1, pH 10.5) 80 min.
